Earlier results, collected in patent US20120277719A1, “COATING COMPOSITIONS, METHODS AND COATED DEVICES” (MASSACHUSETTS INSTITUTE OF TECHNOLOGY, priority 2011, published 2012).

Conditions: reported

For `O=C(OC[C@H]1O[C@@H](OC(=O)c2cc(O)c(O)c(OC(=O)c3cc(O)c(O)c(O)c3)c2)[C@H](OC(=O)c2cc(O)c(O)c(OC(=O)c3cc(O)c(O)c(O)c3)c2)[C@@H](OC(=O)c2cc(O)c(O)c(OC(=O)c3cc(O)c(O)c(O)c3)c2)[C@@H]1OC(=O)c1cc(O)c(O)c(OC(=O)c2cc(O)c(O)c(O)c2)c1)c1cc(O)c(O)c(OC(=O)c2cc(O)c(O)c(O)c2)c1` [Tannic acid, tannic acid], the pKa is listed as about 8.5.
